Data published in patent US20130143929A1, “FUNGICIDAL IMIDAZOLES” (EI DU PONT DE NEMOURS AND COMPANY, priority 2010, published 2013).
Marks after values point to notes of the source that are not given here.

Experiments:
Assay type in all cases: in vivo
[1] = tested on: Puccinia recondite f. sp. tritici (the causal agent of wheat leaf rust); experiment: Test A: wheat leaf rust, preventive spray on wheat seedlings, visual disease rating; conditions: wheat leaf rust, preventive spray on wheat seedlings
Method in brief: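 This was a preventive test: Puccinia recondite f. sp. tritici inoculum was applied one day after compound spray to run-off. Test suspensions were made in 50/50 acetone/water with 250 ppm surfactant, at 200 ppm (800 g/ha equivalent) or 40 ppm. Visual ratings of % disease control relative to controls were made after 24 h of saturated humidity and 7 growth-chamber days, all at 20° C.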

[2] = tested on: Septoria tritici (the causal agent of wheat leaf blotch); experiment: Test B: wheat leaf blotch, preventive spray on wheat seedlings, visual disease rating; conditions: wheat leaf blotch, preventive spray on wheat seedlings
Method in brief: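 Preventive test: Septoria tritici spores applied one day after run-off spraying of seedlings (200 ppm equals 800 g/ha; some tests 40 ppm). After 48 h at 24 °C saturated atmosphere and 19 days at 20 °C, disease scored visually as % control relative to untreated plants.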

[3] = tested on: Botrytis cinerea (the causal agent of tomato Botrytis); experiment: Test C: tomato Botrytis, preventive spray on tomato seedlings, visual disease rating; conditions: tomato Botrytis, preventive spray on tomato seedlings
Method in brief: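 Preventive test: B. cinerea spore inoculation one day after tomato seedlings were sprayed to run-off with compound suspended in 50/50 acetone–water plus 250 ppm surfactant. Plants held 48 h at 20° C in saturated air, then 3 days at 24° C; visual ratings scored 100 (full control) to 0 versus controls; some entries used 40 ppm.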

[4] = tested on: Blumeria graminis f. sp. tritici (also known as Erysiphe graminis f. sp. tritici, the causal agent of wheat powdery mildew); experiment: Test D: wheat powdery mildew, preventive spray on wheat seedlings, visual disease rating; conditions: wheat powdery mildew, preventive spray on wheat seedlings
Method in brief: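 Preventive test: seedlings sprayed to run-off and inoculated with powdery mildew spores one day later. Suspensions were made in 50/50 acetone/water with 250 ppm Trem 014 surfactant (200 ppm equals 800 g/ha). Visual ratings after 8 days at 20 °C give percent disease control versus controls.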

[5] = no asterisk (standard test suspension concentration, not 40 ppm)
[6] = asterisk: 40 ppm test suspension

Row | Compound | Test A rating (100 = 100% disease control, 0 = no disease control relative to the controls) [1, 5] [%] | Test B rating (100 = 100% disease control, 0 = no disease control relative to the controls) [2, 5] [%] | Test C rating (100 = 100% disease control, 0 = no disease control relative to the controls) [3, 5] [%] | Test D rating (100 = 100% disease control, 0 = no disease control relative to the controls) [4, 5] [%] | Test A rating (100 = 100% disease control, 0 = no disease control relative to the controls) [1, 6] | Test B rating (100 = 100% disease control, 0 = no disease control relative to the controls) [2, 6] | Test C rating (100 = 100% disease control, 0 = no disease control relative to the controls) [3, 6] | Test D rating (100 = 100% disease control, 0 = no disease control relative to the controls) [4, 6]
1 | Cc1nc(Cl)c(C(O)c2ccc(F)cc2F)n1-c1ccc(F)cc1Cl (stereo not shown) [compound 58] | 100 | 100 | 100 | 72 |  |  |  | 
2 | Cc1nc(Cl)c(C(O)c2ccc(Cl)cc2)n1-c1ccc(F)cc1Cl (stereo not shown) [compound 59] | 100 | 100 | 99 | 73 |  |  |  | 
3 | Cc1nc(Br)c(C(O)c2ccc(Cl)cc2)n1-c1ccc(F)cc1Cl (stereo not shown) [compound 60] | 100 | 100 | 99 | 73 |  |  |  | 
4 | OC(c1ccc(F)cc1F)c1c(Br)ncn1-c1ccc(F)cc1Cl (stereo not shown) [compound 63] | 96 | 59 | 98 | 0 |  |  |  | 
5 | Cc1nc(Cl)c(C(O)c2ccc(F)cc2Cl)n1-c1c(F)cc(F)cc1Cl (stereo not shown) [compound 64] |  |  |  |  | 100* % | 100* % | 99* % | 93* %
6 | OC(c1ccc(F)cc1F)c1c(Br)nc(Br)n1-c1ccc(F)cc1Cl (stereo not shown) [compound 65] |  |  |  |  | 100* % | 100* % | 100* % | 64* %
7 | Cc1nc(Cl)c(C(O)c2ccc(Cl)cc2Cl)n1-c1c(F)cc(F)cc1Cl (stereo not shown) [compound 66] |  |  |  |  | 100* % | 100* % | 99* % | 69* %
8 | Cc1nc(Cl)c(C(O)c2ccc(F)cc2Br)n1-c1c(F)cccc1Br (stereo not shown) [compound 68] | 100 | 100 | 100 | 96 |  |  |  | 
9 | Cc1nc(Cl)c(C(O)c2ccc(F)cc2Br)n1-c1c(F)cc(F)cc1Br (stereo not shown) [compound 70] |  |  |  |  | 100* % | 100* % | 99* % | 43* %
10 | OC(c1ccc(F)cc1Br)c1c(Cl)nc(C2CC2)n1-c1c(F)cccc1Br (stereo not shown) [compound 72] | 79 | 100 | 0 | 43 |  |  |  | 
11 | Cc1ncc(C(O)c2ccc(F)cc2Cl)n1-c1c(F)cccc1Br (stereo not shown) [compound 73] | 100 | 100 | 99 | 0 |  |  |  | 
12 | Cc1ncc(C(O)c2ccc(F)cc2Cl)n1-c1c(F)cc(F)cc1Br (stereo not shown) [compound 74] | 100 | 100 | 100 | 0 |  |  |  | 
13 | OC(c1ccc(F)cc1Cl)c1cnc(C2CC2)n1-c1c(F)cccc1Br (stereo not shown) [compound 75] | 94 | 1 | 0 | 0 |  |  |  | 
14 | Cc1nc(Cl)c(C(O)c2ccc(F)cc2Cl)n1-c1c(F)cc(Br)cc1F (stereo not shown) [compound 76] |  |  |  |  | 99* % | 100* % | 0* % | 0* %
15 | Cc1cc(F)ccc1C(O)c1c(Cl)nc(Cl)n1-c1ccc(F)cc1F (stereo not shown) [compound 77] | 100 | 100 | 94 | 95 |  |  |  | 
16 | Cc1cc(F)ccc1C(O)c1cnc(C)n1-c1c(F)cccc1F (stereo not shown) [compound 80] | 99 | 100 | 0 | 0 |  |  |  | 
17 | Cc1nc(Cl)n(-c2c(F)cc(F)cc2F)c1C(O)c1ccc(F)cc1F (stereo not shown) [compound 83] |  |  |  |  | 100* % | 100* % | 99* % | 100* %
18 | Cc1cc(F)ccc1C(O)c1c(Br)nc(C)n1-c1c(F)cccc1F (stereo not shown) [compound 88] | 99 | 100 | 96 | 90 |  |  |  | 
19 | OC(c1c(F)cc(F)cc1F)c1c(Cl)nc(Cl)n1-c1ccc(Cl)cc1Cl (stereo not shown) [compound 90] | 100 | 100 | 98 | 99 |  |  |  | 
20 | Cc1cc(F)ccc1C(O)c1c(Cl)nc(C)n1-c1c(F)cccc1F (stereo not shown) [compound 91] | 100 | 100 | 98 | 94 |  |  |  | 
21 | Cc1nc(Cl)c(C(O)c2ccc(F)cc2F)n1-c1c(F)cc(F)cc1Br (stereo not shown) [compound 92] | 100 | 100 | 99 | 95 |  |  |  | 
22 | Cc1ncc(C(O)c2ccc(F)cc2Br)n1-c1c(F)cc(F)cc1Br (stereo not shown) [compound 94] | 100 | 100 | 99 | 56 |  |  |  | 
